In publication PMC11999280, “Design and screening of novel endosomal escape compounds that enhance functional delivery of oligonucleotides in vitro” (Molecular Therapy. Nucleic Acids, 2025):

What was measured:
Type in all cases: cell-based
[1] = system: mCherry-GAL9 expressing 16HBE cells; experiment: GAL9 recruitment assay, 16HBE; details: calculated mean from >3 independent exp.
Method: (§1) Experiments assessing GAL9 localization as an indicator for endosomal remodeling were performed as previously described[15] using 8× stablemCherry-GAL9 expressing cell lines, SHSY5Y, U2OS, 16HBE, NCI-H358, HuH7, HepG2, HEK293, and HeLa. For mCherry-GAL9 recruitment, 3,000 or 6,500 cells/well (depending upon cell line) were seeded into 384-well CellCarrier Ultra plates 24 h prior to treatment (PerkinElmer, catalog no. 6007558). An Echo 655T acoustic dispenser (Labcyte) was used for EEE dose-response preparation by transferring to the cell plate. At assay endpoints, cells were PBS washed, 4% paraformaldehyde fixed at room temperature […] (VWR, catalog no. 9713.1000), and nuclei stained with PBS +1 μg/mL Hoechst 33342 (Thermo Fisher Scientific, catalog no. H21492).
(§2) Imaging was performed using a spinning-disk confocal microscope (Yokogawa: CV8000) with a ×20w objective (numerical aperture 1.0). Cells and mCherry-GAL9 structure identification and quantification were done using Columbus image-analysis software (PerkinElmer version 2.9.0). Data processing was done using Spotfire (Tibco version 11.4) and Prism (GraphPad version 9.1.0). Image panels were assembled using the FigureJ plugin for FIJI.[43] All mCherry-GAL9 experiments were performed three times (N = 3) with duplicated wells per treatment (n = 2).

[2] = system: mCherry-GAL9 expressing HEK293 cells; experiment: GAL9 recruitment assay, HEK293; details: calculated mean from >3 independent exp.
Method: as §1, §2

[3] = system: mCherry-GAL9 expressing HeLa cells; experiment: GAL9 recruitment assay, HeLa; details: calculated mean from >3 independent exp.
Method: as §1, §2

[4] = system: mCherry-GAL9 expressing HepG2 cells; experiment: GAL9 recruitment assay, HepG2; details: calculated mean from >3 independent exp.
Method: as §1, §2

[5] = system: mCherry-GAL9 expressing HuH7 cells; experiment: GAL9 recruitment assay, HuH7; details: calculated mean from >3 independent exp.
Method: as §1, §2

[6] = system: mCherry-GAL9 expressing NCI-H358 cells; experiment: GAL9 recruitment assay, NCI-H358; details: calculated mean from >3 independent exp.
Method: as §1, §2

[7] = system: mCherry-GAL9 expressing SHSY5Y cells; experiment: GAL9 recruitment assay, SHSY5Y; details: calculated mean from >3 independent exp.
Method: as §1, §2

[8] = system: mCherry-GAL9 expressing U2OS cells; experiment: GAL9 recruitment assay, U2OS; details: calculated mean from >3 independent exp.
Method: as §1, §2

[9] = system: HeLa_Luc705 cells (pLuc/705 splice-switching reporter); experiment: Functional 705-SSO delivery, luciferase splice-switching assay; details: HeLa-Luc705 + 2 µM SSO; EEE 2.5 - 3 µM; mean from >3 independent experiments
Description: Therefore, next, we functionally screened the SSO delivery in the HeLa_Luc705 reporter cell line. HeLa_Luc705 carries a pLuc/705 splice-switching reporter luciferase gene interrupted by a mutated β-globin intron, which creates a preferentially used cryptic 5′ splice site leading to aberrant splicing. Functional SSO delivery masks the cryptic site, redirecting the splicing machinery to the right splicing site, allowing the measurement of luciferase expression (Figure S1).[25]^,[26]^,[27]^,[28] We used SSO transfection with LF2000 as transfection control and the previously published endosomal escape enhancer CMP05 (here, EEE2) as positive control.[15]
For the assessment of functional SSO therapeutics, a HeLa_Luc705 cell line was grown in DMEM media supplemented with 10% fetal bovine serum (FBS). For most treatments, 10,000 cells/well were seeded in a 96-well plate, 24 h pre-incubated with 1- to 2-μM oligonucleotide, and then treated at the described EEE concentration. At 24 h post-treatment, cells were PBS rinsed and collected for further analysis (treatments and incubation times changed accordingly to the experiment design). Luciferase readout was performed as previously described,[15] using a GloMax 96-well plate microplate luminometer (Promega) immediately after adding 30 μL auto-injected luciferin substrate (Promega Firefly Luciferase Assay System; Thermo Scientific, catalog no. 16174) in a white-walled 96-well plate containing 30 μL 0.1% Triton X-100 (Sigma-Aldrich) cell lysed. Photon exposure time and delay were set to 10 and 2 s after injection. LF2000 was used as the transfection reagent control (Thermo Scientific, catalog no. 11668019). For EEE experiments using 1 or 2 μM SSOs, the control was prepared using lipofection with 100–200 nM SSO; this is to avoid complex induced cell toxicity.
705-SSO was purchased from and synthesized by Integrated DNA Technologies. The 705-SSO sequence was previously published, containing 2′-O-methylated bases and only phosphorothioate-saturated backbone linkages were included.[15] The 705-SSO was high-performance liquid chromatography purified, shipped, and stored in IDTE buffer (10 mM Tris, 0.1 mM EDTA).

## COc1nn(C2CCN(C)CC2)cc1Nc1ncc(F)c(-n2ccc3ccc(C#N)cc32)n1 [EEE14]
[1]; EEE 0.31 µM
  Gal9 response compared to reference: 0.010
[1]; EEE 0.62 µM
  Gal9 response compared to reference: 0.013
[1]; EEE 1.25 µM
  Gal9 response compared to reference: 0.014
[1]; EEE 2.5 µM
  Gal9 response compared to reference: 0.031
[1]; EEE 5 µM
  Gal9 response compared to reference: 0.118
[1]; EEE 10 µM
  Gal9 response compared to reference: 0.421
[2]; EEE 0.31 µM
  Gal9 response compared to reference: 0.023
[2]; EEE 0.62 µM
  Gal9 response compared to reference: 0.019
[2]; EEE 1.25 µM
  Gal9 response compared to reference: 0.018
[2]; EEE 2.5 µM
  Gal9 response compared to reference: 0.035
[2]; EEE 5 µM
  Gal9 response compared to reference: 0.123
[2]; EEE 10 µM
  Gal9 response compared to reference: 0.443
[3]; EEE 0.31 µM
  Gal9 response compared to reference: 0.005
[3]; EEE 0.62 µM
  Gal9 response compared to reference: 0.005
[3]; EEE 1.25 µM
  Gal9 response compared to reference: 0.004
[3]; EEE 2.5 µM
  Gal9 response compared to reference: 0.006
[3]; EEE 5 µM
  Gal9 response compared to reference: 0.035
[3]; EEE 10 µM
  Gal9 response compared to reference: 0.213
[4]; EEE 0.31 µM
  Gal9 response compared to reference: 0.008
[4]; EEE 0.62 µM
  Gal9 response compared to reference: 0.005
[4]; EEE 1.25 µM
  Gal9 response compared to reference: 0.005
[4]; EEE 2.5 µM
  Gal9 response compared to reference: 0.005
[4]; EEE 5 µM
  Gal9 response compared to reference: 0.015
[4]; EEE 10 µM
  Gal9 response compared to reference: 0.155
[5]; EEE 0.31 µM
  Gal9 response compared to reference: 0.009
[5]; EEE 0.62 µM
  Gal9 response compared to reference: 0.007
[5]; EEE 1.25 µM
  Gal9 response compared to reference: 0.010
[5]; EEE 2.5 µM
  Gal9 response compared to reference: 0.016
[5]; EEE 5 µM
  Gal9 response compared to reference: 0.047
[5]; EEE 10 µM
  Gal9 response compared to reference: 0.280
[6]; EEE 0.31 µM
  Gal9 response compared to reference: 0.015
[6]; EEE 0.62 µM
  Gal9 response compared to reference: 0.019
[6]; EEE 1.25 µM
  Gal9 response compared to reference: 0.019
[6]; EEE 2.5 µM
  Gal9 response compared to reference: 0.026
[6]; EEE 5 µM
  Gal9 response compared to reference: 0.073
[6]; EEE 10 µM
  Gal9 response compared to reference: 0.457
[7]; EEE 0.31 µM
  Gal9 response compared to reference: 0.013
[7]; EEE 0.62 µM
  Gal9 response compared to reference: 0.014
[7]; EEE 1.25 µM
  Gal9 response compared to reference: 0.017
[7]; EEE 2.5 µM
  Gal9 response compared to reference: 0.083
[7]; EEE 5 µM
  Gal9 response compared to reference: 0.403
[7]; EEE 10 µM
  Gal9 response compared to reference: 0.645
[8]; EEE 0.31 µM
  Gal9 response compared to reference: 0.013
[8]; EEE 0.62 µM
  Gal9 response compared to reference: 0.013
[8]; EEE 1.25 µM
  Gal9 response compared to reference: 0.015
[8]; EEE 2.5 µM
  Gal9 response compared to reference: 0.023
[8]; EEE 5 µM
  Gal9 response compared to reference: 0.058
[8]; EEE 10 µM
  Gal9 response compared to reference: 0.232
[9]
  Luciferase expression compared to reference: 0.590
